Read-outs that look alike come from different tables or passages of the source. One block for each compound: values may come before it.
Legend:
human mGluR5a receptor [1] = biological target: T1, human mGluR5a receptor (Homo sapiens, UniProt P41594); assay: Phosphatidylinositol hydrolysis (IP1) assay in HEK 293 cells transiently transfected with mGluR5a3; format: cell-based; set-up: expressed in transfected cells; host or cells: HEK 293 cells, transient CaPO4 transfection
Protocol: HEK 293 cells that had been transiently transfected with mGluR5a3 were plated in 24-well microtiter plates at a density of 8×10^5 cells/well. After the cells were allowed to settle and adhere to the bottom of the plate for a few hours, 2 μCi of [^3H]-myo-inositol (Amersham catalog # PT6-271, Arlington Heights, Ill.; specific activity=17.7 Ci/mmol) was added to each well and incubated overnight at 37° C. The next day, the cells were examined under a Nikon Diaphot inverted microscope to assess the health of the cells morphologically as well as to determine if the wells contained a confluent layer of cells. Media was then aspirated and the cells were washed twice with 0.5 ml Krebs bicarbonate buffer [117.9 mM NaCl, 4.72 mM KCl, 2.54 mM CaCl2, 1.18 mM MgSO4, 1.19 mM KH2PO4, 25 mM NaHCO3, 11.1 mM dextrose (equilibrated with 95% O2, 5% CO2, pH 7.4)]. The cells were incubated for 45 min. at room temperature. The buffer was then aspirated from each well and the cells were washed and incubated in 0.5 ml/well for 45 min at room temperature. The buffer was aspirated from each well, and the cells were then incubated for 20 min at 37° C. with 450 μl Krebs-bicarbonate buffer containing 10 mM LiCl instead of 10 mM NaCl (to block hydrolysis of IP1 to inositol and inorganic phosphate) and 10 mM unlabeled myo-inositol.
To begin treatment of the cells with metabotropic receptor-modulating compounds, 50 μl of Krebs-bicarbonate buffer (control) or 10× the final concentration of the compound was added to each well and the incubation was continued for 40 min. Incubation was terminated by addition of 1 ml ice-cold methanol to each well.
In order to isolate IP1 from the cells, the cells were removed from the plates by scraping with plastic pipette tips, and the cell suspension was transferred to 12×75 mm glass tubes. The tubes were thoroughly vortexed, and a 150-μl aliquot, i.e., one-tenth of the total volume, of each reaction mixture was transferred to another tube for protein determination. The water-soluble inositol phosphates were separated from the radiolabelled membrane phospholipids by extraction in 1 ml chloroform. The tubes were incubated at room temperature for 30 min before centrifugation at 500×g for 5 min at 4° C. The aqueous (top) layer containing the [^3H]-inositol phosphates was transferred to 10-ml syringes connected to Accell QMA SEP-PAK columns (Millipore; Calif.), which were attached to an Amersham Superseparator apparatus that was modified to allow collection into 20-ml scintillation vials. Water (10 ml) was added to the cartridge to remove [^3H]-inositol precursor, followed by 4 ml 0.02 M triethylammonium hydrogen carbonated buffer (TEAB, Fluka; N.Y.). To separately remove [^3H]-IP1, [^3H]-IP2 and [^3H]-IP3 from the cartridge, 4 ml of 0.1 M TEAB, 4 ml of 0.3 M TEAB and 4 ml of 0.4 M TEAB were sequentially added to the cartridge and the separate eluate fractions were collected in large scintillation vials. Ecolume cocktail (15 ml; ICN; California) was added to each vial for subsequent scintillation counting to determine the amount of each IP in the separate fractions. Protein concentration was determined using the Bio-Rad Protein Micro-Assay (Bio-Rad, Richmond, Calif.).

human mGluR5a receptor [2] = biological target: T1, human mGluR5a receptor; assay: Two-electrode voltage clamp of Xenopus oocytes injected with mGluR5a3 transcripts; format: cell-based; conditions: for transmembrane currents after application of the compound: oocytes injected with mGluR5a3 transcripts, 0.001-0.1 μM quisqualate, 0.1-10 μM glutamate, 0.1-300 μM 1S,3R-ACPD, clamped at −80 to −100 mV; for dose-response of current magnitude: varying amounts of each compound, mGluR5a3 transcripts
Protocol: Xenopus oocytes were injected with in vitro transcripts prepared from constructs containing DNA encoding human metabotropic receptors. Electrophysiological measurements of the oocyte transmembrane currents were made using the two-electrode voltage clamp technique (see e.g., Stuhmer (1992) Meth. Enzymol. 207:319-339).
Recombinant capped transcripts of metabotropic receptor cDNAs contained in construct mGluR5a3 were synthesized from linearized plasmids using the Megascript Kit (Cat. #1334, Ambion, Inc., Austin, Tex.). The mass of each synthesized transcript was determined by UV absorbance and the integrity of each transcript was determined by electrophoresis through an agarose gel.
Xenopus oocytes were injected with 10-50 ng of metabotropic receptor transcripts per oocyte. The preparation and injection of oocytes were carried out as described by Dascal [(1987) Crit; Rev. Biochem. 22:317-387]. Two-to-six days following mRNA injection, the oocytes were examined using the two-electrode voltage clamp technique. The cells were bathed in Ringer's solution (115 mM NaCl, 2.5 mM KCl, 1.8 mM CaCl2, 10 mM HEPES, pH 7.3), and the membrane potential was clamped at −80 to −100 mV. Drugs were applied by pipetting 60 μl aliquots of drug-containing solution directly into the bath. Data were sampled at 2-5 Hz with a Labmaster data acquisition board in PC-386 using AXOTAPE version 1.2 (Axon Instruments, Foster City, Calif.) software. Data were exported to a laser printer or plotted using Sigmaplot version 5.0.
Metabotropic receptor-modulating compounds, i.e., 0.001-0.1 μM quisqualate, 0.1-10 μM glutamate and 0.1-300 μM 1S,3R-ACPD (1-amino-cyclopentyl-1,3-dicarboxylic acid), were applied to the bath and the transmembrane currents were recorded.

[3] = 1 mM, HEK 293 transfected with 0.18 μg of mGluR5a3
[4] = varying amounts of compound, cells transfected with mGluR5a3

T1 sequence (P41594 21-1180 isoform P41594-2 limits assumed): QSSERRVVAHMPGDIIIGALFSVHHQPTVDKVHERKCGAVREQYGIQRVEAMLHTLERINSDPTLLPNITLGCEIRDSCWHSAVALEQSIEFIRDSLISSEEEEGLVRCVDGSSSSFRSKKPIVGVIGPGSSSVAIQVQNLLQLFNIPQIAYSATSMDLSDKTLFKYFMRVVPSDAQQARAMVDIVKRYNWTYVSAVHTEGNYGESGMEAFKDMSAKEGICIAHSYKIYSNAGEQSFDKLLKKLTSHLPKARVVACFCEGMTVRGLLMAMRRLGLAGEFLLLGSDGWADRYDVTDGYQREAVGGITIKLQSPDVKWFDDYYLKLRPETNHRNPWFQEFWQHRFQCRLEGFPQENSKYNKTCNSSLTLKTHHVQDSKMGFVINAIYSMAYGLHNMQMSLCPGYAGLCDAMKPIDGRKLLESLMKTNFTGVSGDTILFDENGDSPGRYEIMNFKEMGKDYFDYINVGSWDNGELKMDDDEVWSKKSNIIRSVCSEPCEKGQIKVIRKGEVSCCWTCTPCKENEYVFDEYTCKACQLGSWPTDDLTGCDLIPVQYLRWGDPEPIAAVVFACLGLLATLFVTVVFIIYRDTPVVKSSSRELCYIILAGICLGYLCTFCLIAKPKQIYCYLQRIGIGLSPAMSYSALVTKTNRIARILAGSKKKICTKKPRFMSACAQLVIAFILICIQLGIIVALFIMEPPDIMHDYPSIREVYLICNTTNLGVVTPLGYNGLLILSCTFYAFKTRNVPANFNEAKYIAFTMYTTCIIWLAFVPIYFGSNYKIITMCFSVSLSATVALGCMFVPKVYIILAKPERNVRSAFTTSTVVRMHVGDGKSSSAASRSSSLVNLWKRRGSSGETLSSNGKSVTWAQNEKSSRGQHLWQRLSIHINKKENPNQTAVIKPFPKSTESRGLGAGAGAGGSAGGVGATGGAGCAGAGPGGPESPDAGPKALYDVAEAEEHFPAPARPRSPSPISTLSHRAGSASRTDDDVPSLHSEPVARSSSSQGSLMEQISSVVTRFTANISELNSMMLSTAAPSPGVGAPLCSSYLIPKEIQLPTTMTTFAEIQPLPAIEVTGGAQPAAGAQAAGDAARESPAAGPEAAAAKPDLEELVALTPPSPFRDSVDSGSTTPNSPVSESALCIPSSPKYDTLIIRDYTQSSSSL

IP1 levels on treatment with compound (human mGluR5a receptor [1]; [3]): detectable increases in IP1 levels | transmembrane currents after application of the compound (human mGluR5a receptor [2]): Significant currents were detected
SMILES: N[C@@H](CCC(=O)O)C(=O)O [glutamate]
dose-response of IP1 levels (human mGluR5a receptor [1]; [4]): IP1 levels increased with increasing concentration | dose-response of current magnitude (human mGluR5a receptor [2]): current magnitude increased with increasing concentration

SMILES: N[C@@H](Cn1oc(=O)[nH]c1=O)C(=O)O [quisqualate]
IP1 levels on treatment with compound (human mGluR5a receptor [1]): detectable increases in IP1 levels | dose-response of IP1 levels (human mGluR5a receptor [1]): IP1 levels increased with increasing concentration | transmembrane currents after application of the compound (human mGluR5a receptor [2]): Significant currents were detected | dose-response of current magnitude (human mGluR5a receptor [2]): current magnitude increased with increasing concentration

SMILES: NC1(C(=O)O)CCC(C(=O)O)C1 (stereo not drawn) [1S,3R-ACPD, 1-amino-cyclopentyl-1,3-dicarboxylic acid]
IP1 levels on treatment with compound (human mGluR5a receptor [1]; [3]): detectable increases in IP1 levels | dose-response of IP1 levels (human mGluR5a receptor [1]; [4]): IP1 levels increased with increasing concentration | transmembrane currents after application of the compound (human mGluR5a receptor [2]): Significant currents were detected | dose-response of current magnitude (human mGluR5a receptor [2]): current magnitude increased with increasing concentration
